Residues, ends and D or L forms follow the SMILES beside them. *: point of attachment. Cbz = O=C(OCc1ccccc1)*
Legend:
TENC1 [1] = molecular target: T1, TENC1 (Homo sapiens, UniProt Q63HR2, P1246L); test: degradation of IRS-1 protein in myotube overexpressing TENC1, Western blotting; format: cell-based; parameters: expressed in transfected cells; host or cells: L6 myotube (adenoviral overexpression)
T1 sequence (Q63HR2 1-1409 P1246L): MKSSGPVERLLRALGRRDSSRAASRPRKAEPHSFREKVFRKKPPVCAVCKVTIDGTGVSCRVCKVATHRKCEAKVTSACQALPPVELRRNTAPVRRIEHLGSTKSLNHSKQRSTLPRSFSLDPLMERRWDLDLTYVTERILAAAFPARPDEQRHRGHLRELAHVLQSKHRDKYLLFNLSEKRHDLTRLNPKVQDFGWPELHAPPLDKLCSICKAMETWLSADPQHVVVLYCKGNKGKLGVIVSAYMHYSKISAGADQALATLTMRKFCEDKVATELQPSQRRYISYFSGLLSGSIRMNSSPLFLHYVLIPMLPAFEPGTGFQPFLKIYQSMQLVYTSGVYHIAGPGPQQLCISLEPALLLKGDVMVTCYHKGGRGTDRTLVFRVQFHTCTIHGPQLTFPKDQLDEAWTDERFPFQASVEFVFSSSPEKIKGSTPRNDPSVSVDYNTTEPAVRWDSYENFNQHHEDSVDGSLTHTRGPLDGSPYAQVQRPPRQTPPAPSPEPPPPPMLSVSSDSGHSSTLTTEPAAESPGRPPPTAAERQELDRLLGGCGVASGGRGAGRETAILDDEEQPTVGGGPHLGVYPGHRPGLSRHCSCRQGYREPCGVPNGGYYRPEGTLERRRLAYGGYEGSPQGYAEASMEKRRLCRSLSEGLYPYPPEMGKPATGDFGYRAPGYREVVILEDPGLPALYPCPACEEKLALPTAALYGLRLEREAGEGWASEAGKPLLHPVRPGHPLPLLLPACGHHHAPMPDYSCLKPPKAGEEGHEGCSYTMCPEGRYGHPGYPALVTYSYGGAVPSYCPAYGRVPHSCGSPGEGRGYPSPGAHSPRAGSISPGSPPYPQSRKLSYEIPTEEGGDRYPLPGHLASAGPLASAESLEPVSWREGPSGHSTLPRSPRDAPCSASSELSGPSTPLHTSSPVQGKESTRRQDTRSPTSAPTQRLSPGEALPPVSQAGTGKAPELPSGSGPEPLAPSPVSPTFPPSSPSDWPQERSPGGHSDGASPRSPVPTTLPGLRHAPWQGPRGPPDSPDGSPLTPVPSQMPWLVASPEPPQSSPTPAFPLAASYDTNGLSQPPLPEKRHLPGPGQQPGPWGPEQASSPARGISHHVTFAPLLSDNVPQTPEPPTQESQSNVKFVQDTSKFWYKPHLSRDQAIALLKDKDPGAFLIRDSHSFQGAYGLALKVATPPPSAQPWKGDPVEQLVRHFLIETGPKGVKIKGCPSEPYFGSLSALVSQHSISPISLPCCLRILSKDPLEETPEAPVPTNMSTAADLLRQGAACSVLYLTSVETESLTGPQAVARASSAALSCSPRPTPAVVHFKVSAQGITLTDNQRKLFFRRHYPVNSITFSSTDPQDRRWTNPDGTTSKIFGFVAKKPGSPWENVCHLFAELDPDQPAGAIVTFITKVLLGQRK
Description: In order to know a physiological function of TENC1, TENC1 was overexpressed in L6 myotube (muscle cell) that plays a main role in IRS-1, using an adenovirus. Using the same method as in Example 1, the quantitative PCR was performed and it was confirmed that TENC1 mRNA was increased eightfold to tenfold in the myotube. Then, using the same method as in Example 2, phosphorylation of proteins associated with IRS-1 was determined.
Accordingly, in order to determine the reason for the decrease of IRS-1, it was determined whether TENC1 influences a ubiquitin proteasome pathway or serine phosphorylation of IRS-1 by Western blotting. In order to determine whether TENC1 influences a protein-degrading mechanism, MG132, which is an inhibitor of a protein-degrading enzyme (proteasome), was treated.
In order to determine whether the PTPase activity of TENC1 influences degradation of IRS-1, vanadate was treated to determine whether degradation of IRS-1 is suppressed by Western blotting.

TENC1 [2] = molecular target: T1, TENC1; test: PTPase activity of separated TENC1, malachite green assay; format: biochemical; parameters: expressed in transfected cells; details: separated TENC1 proteins, FIG. 16A
Description: In addition, in order to measure the PTPase activity of TENC1, first, TENC1 was separated from HEK293 cell lines using a Flag immunoprecipitation/Flag peptide elution system. Then, the PTPase activity of the separated TENC1 was measured over time, using peptides having phosphotyrosine. The PTPase activity was analyzed by a malachite green assay method. As a control group, PTEN (a phosphatase and tensin homolog) or the TENC1 CS variant was used.
As a result, it was confirmed that the PTPase activity of TENC1 was inhibited by 60% or more (FIG. 16A).

PTPase domain of TENC1 = molecular target: T2, PTPase domain of TENC1 (Homo sapiens, UniProt Q63HR2, P1246L); test: binding of TENC1 and IRS-1, immunoprecipitation using IRS-1; details: FIG. 5
T2 construct: expressed in transfected cells
T2 sequence (Q63HR2 1-1409 P1246L): T1 sequence (Q63HR2 1-1409 P1246L)
Description: In order to determine a mechanism of TENC1 that suppresses phosphorylation of IRS-1, immunoprecipitation was performed using IRS-1. In a control experiment, vanadate, which is an analogue of phosphotyrosine and binds to a PTPase domain to inhibit the PTPase activity, was used.

For `CC(C)C[C@@H](C=O)NC(=O)[C@H](CC(C)C)NC(=O)[C@H](CC(C)C)NC(=O)OCc1ccccc1` [MG132] (Cbz-Leu-Leu-Leu-aldehyde), the “amount of IRS-1” value (TENC1 [1]; with and without insulin, TENC1 overexpressed, FIG. 9) was “the decreased amount of IRS-1 was restored”.
With `C[C@H]1[C@H](C)CC[C@]2(C(=O)O)CC[C@]3(C)C(=CC[C@@H]4[C@@]5(C)CC[C@H](O)C(C)(C)[C@@H]5CC[C@]43C)[C@H]12` [ursolic acid] the inhibition at 20 µM (TENC1 [2]) was ≥ 60% and the “degree of degradation of IRS-1 protein” value (TENC1 [1]; myotube overexpressing TENC1, increasing concentration, FIG. 16C) was “IRS-1 is restored to a level similar to a control group”.
For `[O]=[V]([O-])([O-])[O-]` [vanadate], the “binding of TENC1 WT with IRS-1” value (PTPase domain of TENC1) was “binding with IRS-1 decreased” and the “degradation of IRS-1” value (TENC1 [1]; vanadate treated, Western blotting, FIG. 10) was “degradation of IRS-1 was suppressed”.

Reference: patent US9402856B2, “Pharmaceutical composition for preventing or treating diabetes containing TENC1 expression or activity suppressor” (POSTECH ACADEMY-INDUSTRY FOUNDATION, priority 2012, dated 2016)
